Laboratory results as given in paper PMC8956739, “A synthetic lipopeptide targeting top-priority multidrug-resistant Gram-negative pathogens” (Nature Communications, 2022).
Converted amounts (≈) assume the structure as drawn. Where two headings read alike, the source gives them in different places. Residues, ends and D or L forms follow the SMILES beside them.

Tests used:
A. baumannii AB5075 [1] = test: Transcriptomic analysis (RNA-Seq) of bacteria; format: cell-based, Acinetobacter baumannii; conditions: for logFC (Differential gene expression for all genes), Geneid ABUW_RS00005 / logFC (Differential gene expression for all genes), Geneid ABUW_RS00020 / logFC (Fold change), gene ABUW_RS00010 / logFC (Fold change), gene ABUW_RS00030 / logFC (Fold change), gene ABUW_RS00035 / logFC (Fold change), gene recF (ABUW_RS00015) / 4h_1h logFC (Differential gene expression for all genes), Geneid ABUW_RS00005 / 4h_1h logFC (Differential gene expression for all genes), Geneid ABUW_RS00010 / 4h_1h logFC (Differential gene expression for all genes), Geneid ABUW_RS00015 / 4h_1h logFC (Differential gene expression for all genes), Geneid ABUW_RS00020: RNA-Seq A. baumannii AB5075; for log2FC, gene ABUW_RS01945 (acyl-CoA thioesterase II) / log2FC, gene ABUW_RS02545 (acyl-CoA thioesterase) / log2FC, gene ABUW_RS05045 (acyl-CoA thioesterase) / log2FC, gene ABUW_RS17575 (acyl-CoA thioesterase): pathway Fatty Acid and Lipid Degradation; for 4h_1h logFC (Differential gene expression for all genes), Geneid ABUW_RS00005 / 4h_1h logFC (Differential gene expression for all genes), Geneid ABUW_RS00010 / 4h_1h logFC (Differential gene expression for all genes), Geneid ABUW_RS00015 / 4h_1h logFC (Differential gene expression for all genes), Geneid ABUW_RS00020: 4h vs 1h
A. baumannii FADDI-AB030 = format: cell-based, Acinetobacter baumannii; conditions: FADDI-AB030
Outline: (§1)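 Read-out is the minimum inhibitory concentration, obtained by serially diluting compound in cation-adjusted Mueller–Hinton medium and exposing each isolate in microdilution format.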

A. baumannii AB5075 [2] = format: cell-based, Acinetobacter baumannii; conditions: AB5075
Outline: as §1

A. baumannii FADDI-AB034 = format: cell-based, Acinetobacter baumannii; conditions: FADDI-AB034
Outline: as §1

[3] = system: MDR clinical isolates of A. baumannii (n = 210, 200 carbapenem-resistant); format: cell-based, Acinetobacter baumannii
Outline: (§2)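 Cation-adjusted Mueller–Hinton broth was used with the broth microdilution method to set MICs against clinical isolates. A separate run on P. aeruginosa ATCC 27853 added 10% Survanta® (v/v, 2.5 mg/mL phospholipids) to gauge lung-surfactant binding of polymyxins.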

A. baumannii ATCC 19606 = format: cell-based, Acinetobacter baumannii; conditions: ATCC 19606
Outline: as §1

[4] = system: MDR clinical isolates of P. aeruginosa (n = 213, 55 carbapenem-resistant); format: cell-based, Pseudomonas aeruginosa
Outline: as §2

P. aeruginosa ATCC 27853 = format: cell-based, Pseudomonas aeruginosa
Outline: as §1

[5] = system: P. aeruginosa FADDI-PA038; format: cell-based, Pseudomonas aeruginosa; conditions: carbapenem-resistant isolate
Outline: as §1

[6] = system: P. aeruginosa FADDI-PA025; format: cell-based, Pseudomonas aeruginosa; conditions: FADDI-PA025
Outline: as §1

[7] = MDR clinical isolates of (n = 210, 200 carbapenem-resistant)
[8] = MDR clinical isolates of (n = 213, 55 carbapenem-resistant)

CC[C@@H]1NC(=O)[C@@H](CC(C)C)NC(=O)[C@H](CCN)NC(=O)[C@@H](NC(=O)[C@H](CN)NC(=O)[C@@H](NC(=O)[C@H](CCN)NC(=O)c2ccc(Cl)cc2Cl)[C@@H](C)O)CCNC(=O)[C@H]([C@@H](C)O)NC(=O)[C@H](CCN)NC(=O)[C@H](CCN)NC1=O [Lipopeptide F365] (HELM PEPTIDE1{[O=C(c1ccc(Cl)cc1Cl)[*:2]].[Dab].T.[NC[C@H](N[*:1])C(=O)[*:2]].[Dab].[Dab].[dL].[Abu].[Dab].[Dab].T}$PEPTIDE1,PEPTIDE1,5:R3-11:R2$$$V2.0)
logFC (Differential gene expression for all genes), Geneid ABUW_RS00005 (A. baumannii AB5075 [1]; H vs Cont, 1h): 0.01563 | logFC (Differential gene expression for all genes), Geneid ABUW_RS00020 (A. baumannii AB5075 [1]; H vs Cont, 1h): 0.4229 | logFC (Fold change), gene ABUW_RS00010 (A. baumannii AB5075 [1]; H vs Cont, 1h): 0.4611 | logFC (Fold change), gene ABUW_RS00030 (A. baumannii AB5075 [1]; H vs Cont, 1h): -0.6384 | logFC (Fold change), gene ABUW_RS00035 (A. baumannii AB5075 [1]; H vs Cont, 1h): 1.28 | logFC (Fold change), gene recF (ABUW_RS00015) (A. baumannii AB5075 [1]; H vs Cont, 1h): -0.2583 | log2FC, gene ABUW_RS01945 (acyl-CoA thioesterase II) (A. baumannii AB5075 [1]; H vs Cont, 1h): 0.05276 | log2FC, gene ABUW_RS02545 (acyl-CoA thioesterase) (A. baumannii AB5075 [1]; H vs Cont, 1h): 1.462 | log2FC, gene ABUW_RS05045 (acyl-CoA thioesterase) (A. baumannii AB5075 [1]; H vs Cont, 1h): 0.342 | log2FC, gene ABUW_RS17575 (acyl-CoA thioesterase) (A. baumannii AB5075 [1]; H vs Cont, 1h): -0.4502 | logFC (Differential gene expression for all genes), Geneid ABUW_RS00005 (A. baumannii AB5075 [1]; H vs Cont, 4h): -0.1188 | logFC (Differential gene expression for all genes), Geneid ABUW_RS00020 (A. baumannii AB5075 [1]; H vs Cont, 4h): 0.1404 | logFC (Fold change), gene ABUW_RS00010 (A. baumannii AB5075 [1]; H vs Cont, 4h): 1.271 | logFC (Fold change), gene ABUW_RS00030 (A. baumannii AB5075 [1]; H vs Cont, 4h): -1.908 | logFC (Fold change), gene ABUW_RS00035 (A. baumannii AB5075 [1]; H vs Cont, 4h): 1.362 | logFC (Fold change), gene recF (ABUW_RS00015) (A. baumannii AB5075 [1]; H vs Cont, 4h): -0.8325 | log2FC, gene ABUW_RS01945 (acyl-CoA thioesterase II) (A. baumannii AB5075 [1]; H vs Cont, 4h): -0.9573 | log2FC, gene ABUW_RS02545 (acyl-CoA thioesterase) (A. baumannii AB5075 [1]; H vs Cont, 4h): 1.303 | log2FC, gene ABUW_RS05045 (acyl-CoA thioesterase) (A. baumannii AB5075 [1]; H vs Cont, 4h): 0.7194 | log2FC, gene ABUW_RS17575 (acyl-CoA thioesterase) (A. baumannii AB5075 [1]; H vs Cont, 4h): -2.7329 | 4h_1h logFC (Differential gene expression for all genes), Geneid ABUW_RS00005 (A. baumannii AB5075 [1]; H): -0.4851 | 4h_1h logFC (Differential gene expression for all genes), Geneid ABUW_RS00010 (A. baumannii AB5075 [1]; H): 0.8595 | 4h_1h logFC (Differential gene expression for all genes), Geneid ABUW_RS00015 (A. baumannii AB5075 [1]; H): -1.098 | 4h_1h logFC (Differential gene expression for all genes), Geneid ABUW_RS00020 (A. baumannii AB5075 [1]; H): 0.6821 | logFC (Differential gene expression for all genes), Geneid ABUW_RS00005 (A. baumannii AB5075 [1]; L vs Cont, 1h): 0.07464 | logFC (Differential gene expression for all genes), Geneid ABUW_RS00020 (A. baumannii AB5075 [1]; L vs Cont, 1h): -0.04639 | logFC (Fold change), gene ABUW_RS00010 (A. baumannii AB5075 [1]; L vs Cont, 1h): 0.04206 | logFC (Fold change), gene ABUW_RS00030 (A. baumannii AB5075 [1]; L vs Cont, 1h): 0.5072 | logFC (Fold change), gene ABUW_RS00035 (A. baumannii AB5075 [1]; L vs Cont, 1h): -0.01907 | logFC (Fold change), gene recF (ABUW_RS00015) (A. baumannii AB5075 [1]; L vs Cont, 1h): 0.05956 | log2FC, gene ABUW_RS01945 (acyl-CoA thioesterase II) (A. baumannii AB5075 [1]; L vs Cont, 1h): 0.4901 | log2FC, gene ABUW_RS02545 (acyl-CoA thioesterase) (A. baumannii AB5075 [1]; L vs Cont, 1h): -0.0862 | log2FC, gene ABUW_RS05045 (acyl-CoA thioesterase) (A. baumannii AB5075 [1]; L vs Cont, 1h): -0.2681 | log2FC, gene ABUW_RS17575 (acyl-CoA thioesterase) (A. baumannii AB5075 [1]; L vs Cont, 1h): -0.08172 | logFC (Differential gene expression for all genes), Geneid ABUW_RS00005 (A. baumannii AB5075 [1]; L vs Cont, 4h): 0.1571 | logFC (Differential gene expression for all genes), Geneid ABUW_RS00020 (A. baumannii AB5075 [1]; L vs Cont, 4h): -0.1135 | logFC (Fold change), gene ABUW_RS00010 (A. baumannii AB5075 [1]; L vs Cont, 4h): 0.2996 | logFC (Fold change), gene ABUW_RS00030 (A. baumannii AB5075 [1]; L vs Cont, 4h): 0.4017 | logFC (Fold change), gene ABUW_RS00035 (A. baumannii AB5075 [1]; L vs Cont, 4h): 0.1258 | logFC (Fold change), gene recF (ABUW_RS00015) (A. baumannii AB5075 [1]; L vs Cont, 4h): -0.3068 | log2FC, gene ABUW_RS01945 (acyl-CoA thioesterase II) (A. baumannii AB5075 [1]; L vs Cont, 4h): -0.2225 | log2FC, gene ABUW_RS02545 (acyl-CoA thioesterase) (A. baumannii AB5075 [1]; L vs Cont, 4h): -0.9002 | log2FC, gene ABUW_RS05045 (acyl-CoA thioesterase) (A. baumannii AB5075 [1]; L vs Cont, 4h): 0.02763 | log2FC, gene ABUW_RS17575 (acyl-CoA thioesterase) (A. baumannii AB5075 [1]; L vs Cont, 4h): -0.0188 | 4h_1h logFC (Differential gene expression for all genes), Geneid ABUW_RS00005 (A. baumannii AB5075 [1]; L): -0.03686 | 4h_1h logFC (Differential gene expression for all genes), Geneid ABUW_RS00010 (A. baumannii AB5075 [1]; L): -0.6141 | 4h_1h logFC (Differential gene expression for all genes), Geneid ABUW_RS00015 (A. baumannii AB5075 [1]; L): -0.239 | 4h_1h logFC (Differential gene expression for all genes), Geneid ABUW_RS00020 (A. baumannii AB5075 [1]; L): -0.06215 | MIC A. baumannii FADDI-AB030 (A. baumannii FADDI-AB030): 0.25 µg/mL (≈ 0.215 µM) | MIC A. baumannii AB5075 (A. baumannii AB5075 [2]): 0.5 µg/mL (≈ 0.431 µM) | MIC A. baumannii FADDI-AB034 (A. baumannii FADDI-AB034): 0.25 µg/mL (≈ 0.215 µM) | MIC50 [3, 7]: 0.25 µg/mL (≈ 0.215 µM) | MIC90 [3, 7]: 1 µg/mL (≈ 0.862 µM) | potency relative to polymyxin B ([3]; MIC50/MIC90, A. baumannii panel): ≤ 4 fold | Number of isolates ([3]; isolates with MIC 0.05 µg/mL): 1 | Number of isolates ([3]; isolates with MIC 0.125 µg/mL): 7 | Number of isolates ([3]; isolates with MIC 0.25 µg/mL): 99 | Number of isolates ([3]; isolates with MIC 0.5 µg/mL): 81 | Number of isolates ([3]; isolates with MIC 1 µg/mL): 8 | Number of isolates ([3]; isolates with MIC 2 µg/mL): 9 | Number of isolates ([3]; isolates with MIC 4 µg/mL): 1 | Number of isolates ([3]; isolates with MIC 8 µg/mL): 0 | Number of isolates ([3]; isolates with MIC 16 µg/mL): 1 | Number of isolates ([3]; isolates with MIC 32 µg/mL): 2 | Number of isolates ([3]; isolates with MIC 64 µg/mL): 1 | Number of isolates ([3]; isolates with MIC >64 µg/mL): 0 | MIC A. baumannii ATCC 19606 (A. baumannii ATCC 19606): 0.25 µg/mL (≈ 0.215 µM) | MIC50 [4, 8]: 0.5 µg/mL (≈ 0.431 µM) | MIC90 [4, 8]: 1 µg/mL (≈ 0.862 µM) | potency relative to polymyxin B ([4]; MIC50/MIC90, P. aeruginosa panel): 2 fold | Number of isolates ([4]; isolates with MIC 0.05 μg/mL (so in the source)): 1 | Number of isolates ([4]; isolates with MIC 0.125 μg/mL (so in the source)): 6 | Number of isolates ([4]; isolates with MIC 0.25 μg/mL (so in the source)): 28 | Number of isolates ([4]; isolates with MIC 0.5 μg/mL (so in the source)): 159 | Number of isolates ([4]; isolates with MIC 1 μg/mL (so in the source)): 13 | Number of isolates ([4]; isolates with MIC 2 μg/mL (so in the source)): 1 | Number of isolates ([4]; isolates with MIC 4 μg/mL (so in the source)): 2 | Number of isolates ([4]; isolates with MIC 8 μg/mL (so in the source)): 0 | Number of isolates ([4]; isolates with MIC 16 μg/mL (so in the source)): 1 | Number of isolates ([4]; isolates with MIC 32 μg/mL (so in the source)): 0 | Number of isolates ([4]; isolates with MIC 64 μg/mL (so in the source)): 0 | Number of isolates ([4]; isolates with MIC >64 μg/mL (so in the source)): 2 | impact of lung surfactant on MIC (P. aeruginosa ATCC 27853; 10% Survanta vs none): not impacted | MIC P. aeruginosa ATCC 27853 (P. aeruginosa ATCC 27853; ATCC 27853): 0.5 µg/mL (≈ 0.431 µM) | MIC, No Survanta (P. aeruginosa ATCC 27853; ATCC 27853): 0.5 µg/mL (≈ 0.431 µM) | MIC P. aeruginosa FADDI-PA038 [5]: 0.5 µg/mL (≈ 0.431 µM) | MIC P. aeruginosa FADDI-PA025 [6]: 0.5 µg/mL (≈ 0.431 µM)
